According to ChEMBL document CHEMBL1140576, “Discovery of novel non-cytotoxic salicylhydrazide containing HIV-1 integrase inhibitors” (Bioorg Med Chem Lett, 2007):
The source made the active and inactive calls. The calls are words filed in the database; no cut-off is given here.

Legend:
[1] = tested on: HCT-116; experiment: Cytotoxicity against human HCT116 cells at 20 uM; format: cell-based; conditions: hct-116, 20 µM
[2] = target: T1, Human immunodeficiency virus type 1 integrase (Human immunodeficiency virus 1, UniProt Q7ZJM1); experiment: Inhibition of HIV1 integrase 3'-end processing activity
[3] = Cytotoxicity against human HCT116 cells; format: cell-based, HCT-116
[4] = tested on: MDA-MB-435; experiment: Cytotoxicity against human MDA-MB-435 cells at 20 uM; format: cell-based; conditions: mda-mb-435, 20 µM
[5] = target: T1, Human immunodeficiency virus type 1 integrase; experiment: Inhibition of HIV1 integrase strand transfer activity
[6] = Cytotoxicity against human MDA-MB-435 cells; format: cell-based
[7] = target: Human immunodeficiency virus type 1 integrase (Human immunodeficiency virus 1) (UniProt Q7ZJM1); experiment: Inhibition of HIV1 integrase 3'-end processing activity at 100 uM
[8] = target: Human immunodeficiency virus type 1 integrase (Human immunodeficiency virus 1) (UniProt Q7ZJM1); experiment: Inhibition of HIV1 integrase strand transfer activity at 100 uM

T1 sequence (Q7ZJM1 whole entry): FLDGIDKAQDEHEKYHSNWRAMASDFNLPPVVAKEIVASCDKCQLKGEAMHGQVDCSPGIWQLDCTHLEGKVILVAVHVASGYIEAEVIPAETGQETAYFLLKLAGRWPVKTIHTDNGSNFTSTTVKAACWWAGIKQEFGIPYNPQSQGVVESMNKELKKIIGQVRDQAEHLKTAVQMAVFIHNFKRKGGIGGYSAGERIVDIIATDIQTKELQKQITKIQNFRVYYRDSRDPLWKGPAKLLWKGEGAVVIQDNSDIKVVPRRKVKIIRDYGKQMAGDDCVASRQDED
Human immunodeficiency virus type 1 integrase (Human immunodeficiency virus 1), sequence (Q7ZJM1 as listed by the source): as the sequence (Q7ZJM1 whole entry) above

Question: Which Activity [1] does the source give for `O=C(CSc1nnc(-c2ccccc2)n1Cc1ccccc1)NNC(=O)c1ccccc1O` here?
Answer: Its Activity is 34%.

Question: What about the IC50 [2] of the same molecule?
Answer: The IC50 was 21 µM.

Question: What about the CC50 [3] of the same molecule?
Answer: Its CC50 is over 20 µM.

Question: And the Activity [4]?
Answer: The Activity was 22%.

Question: And the IC50 [5]?
Answer: The IC50 was 9 µM.

Question: What about the CC50 [6] of the same molecule?
Answer: The CC50 was over 20 µM.

Question: Which results are given for `COc1ccccc1-n1c(SCC(=O)NNC(=O)c2ccccc2O)nnc1-c1ccccc1O`?
Answer: IC50 [2]: 8 µM; CC50 [3]: 20 µM; Activity [4]: 40%; IC50 [5]: 6 µM; CC50 [6]: > 20 µM

Question: For `O=C(CSc1nnc(-c2ccc(Cl)cc2)n1-c1ccccc1)NNC(=O)c1ccccc1O`, which Activity [1] is on record?
Answer: The Activity was 36%.

Question: What about the IC50 [2] of the same molecule?
Answer: The IC50 was 11 µM.

Question: And the CC50 [3]?
Answer: Its CC50 is over 20 µM.

Question: And the Activity [4]?
Answer: The Activity was 30%.

Question: And the IC50 [5]?
Answer: Its IC50 is 5 µM.

Question: And the CC50 [6]?
Answer: The CC50 was over 20 µM.

Question: With `Cc1cc(C)nc(SCc2nnc(SCC(=O)NNC(=O)c3ccccc3O)n2-c2ccccc2)n1` as the molecule, how does the Activity [1] read?
Answer: The Activity was 0%.

Question: What about the IC50 [2] of the same molecule?
Answer: Its IC50 is 51 µM.

Question: And the CC50 [3]?
Answer: The CC50 was over 20 µM.

Question: And the Activity [4]?
Answer: Its Activity is 3%.

Question: And the IC50 [5]?
Answer: The IC50 was 27 µM.

Question: And the CC50 [6]?
Answer: Its CC50 is over 20 µM.

Question: For `O=C(CSc1nnc(-c2ccc(Cl)cc2)n1-c1ccccc1)N/N=C/c1ccccc1C(=O)O`, which Activity [1] is on record?
Answer: Its Activity is 0%.

Question: What about the IC50 [2] of the same molecule?
Answer: Its IC50 is over 100 µM.

Question: What about the CC50 [3] of the same molecule?
Answer: The CC50 was over 20 µM.

Question: What about the Activity [4] of the same molecule?
Answer: The Activity was 8%.

Question: What about the IC50 [5] of the same molecule?
Answer: Its IC50 is over 100 µM.

Question: And the Activity [7]?
Answer: Its Activity is “inactive”.

Question: What about the CC50 [6] of the same molecule?
Answer: The CC50 was over 20 µM.

Question: And the Activity [8]?
Answer: The Activity was “inactive”.

Question: For `O=C(CSc1nnc(-c2ccccc2O)n1Cc1ccccc1)NNC(=O)c1ccccc1O`, which Activity [1] is on record?
Answer: The Activity was 8%.

Question: And the IC50 [2]?
Answer: The IC50 was 15 µM.

Question: And the CC50 [3]?
Answer: Its CC50 is over 20 µM.

Question: What about the Activity [4] of the same molecule?
Answer: Its Activity is 15%.

Question: What about the IC50 [5] of the same molecule?
Answer: The IC50 was 9 µM.

Question: What about the CC50 [6] of the same molecule?
Answer: The CC50 was over 20 µM.

Question: For `Cc1ccc(-n2c(SCC(=O)NNC(=O)c3ccccc3O)nnc2-c2ccccc2O)cc1`, which Activity [1] is on record?
Answer: The Activity was 26%.

Question: What about the IC50 [2] of the same molecule?
Answer: Its IC50 is 5 µM.

Question: And the CC50 [3]?
Answer: Its CC50 is over 20 µM.

Question: And the Activity [4]?
Answer: Its Activity is 12%.

Question: And the IC50 [5]?
Answer: The IC50 was 3 µM.

Question: What about the CC50 [6] of the same molecule?
Answer: The CC50 was over 20 µM.

Question: With `O=C(CSc1nnnn1-c1ccccc1)NNC(=O)c1ccc(O)cc1O` as the molecule, how does the Activity [1] read?
Answer: Its Activity is 15%.

Question: What about the IC50 [2] of the same molecule?
Answer: The IC50 was 68 µM.

Question: What about the CC50 [3] of the same molecule?
Answer: The CC50 was over 20 µM.

Question: What about the Activity [4] of the same molecule?
Answer: Its Activity is 3%.

Question: And the IC50 [5]?
Answer: Its IC50 is 61 µM.

Question: And the CC50 [6]?
Answer: The CC50 was over 20 µM.

Question: Which Activity [1] does the source give for `O=C(CSc1nnc(Cc2ccccc2)n1-c1cccc(Cl)c1)NNC(=O)c1ccccc1O` here?
Answer: Its Activity is 11%.

Question: And the IC50 [2]?
Answer: The IC50 was 9 µM.

Question: And the CC50 [3]?
Answer: Its CC50 is over 20 µM.

Question: And the Activity [4]?
Answer: Its Activity is 5%.

Question: And the IC50 [5]?
Answer: Its IC50 is 8 µM.

Question: What about the CC50 [6] of the same molecule?
Answer: Its CC50 is over 20 µM.

Question: Which IC50 [2] does the source give for `Cc1ccc(-n2c(SCC(=O)NNC(=O)c3ccccc3O)nnc2-c2ccccc2)cc1` here?
Answer: The IC50 was 23 µM.

Question: What about the CC50 [3] of the same molecule?
Answer: The CC50 was 15 µM.

Question: What about the IC50 [5] of the same molecule?
Answer: The IC50 was 12 µM.

Question: And the CC50 [6]?
Answer: Its CC50 is 20 µM.

Question: For `Cn1c(SCC(=O)NNC(=O)c2ccccc2O)nnc1-c1ccccc1`, which Activity [1] is on record?
Answer: The Activity was 39%.

Question: What about the IC50 [2] of the same molecule?
Answer: Its IC50 is 64 µM.

Question: And the CC50 [3]?
Answer: The CC50 was over 20 µM.

Question: And the Activity [4]?
Answer: Its Activity is 32%.

Question: And the IC50 [5]?
Answer: The IC50 was 58 µM.

Question: And the CC50 [6]?
Answer: The CC50 was over 20 µM.

Question: For `COc1ccc(-c2nnc(SCC(=O)NNC(=O)c3ccccc3O)n2-c2ccccc2)cc1OC`, which Activity [1] is on record?
Answer: Its Activity is 24%.

Question: What about the IC50 [2] of the same molecule?
Answer: The IC50 was 22 µM.

Question: And the CC50 [3]?
Answer: Its CC50 is over 20 µM.

Question: What about the Activity [4] of the same molecule?
Answer: Its Activity is 13%.

Question: What about the IC50 [5] of the same molecule?
Answer: The IC50 was 21 µM.

Question: And the CC50 [6]?
Answer: The CC50 was over 20 µM.

Question: With `O=C(CSc1nnc(-c2ccncc2)n1-c1ccc(F)cc1)NNC(=O)c1ccccc1O` as the molecule, how does the Activity [1] read?
Answer: The Activity was 22%.

Question: And the IC50 [2]?
Answer: Its IC50 is 49 µM.

Question: And the CC50 [3]?
Answer: Its CC50 is over 20 µM.

Question: What about the Activity [4] of the same molecule?
Answer: The Activity was 14%.

Question: What about the IC50 [5] of the same molecule?
Answer: The IC50 was 31 µM.

Question: What about the CC50 [6] of the same molecule?
Answer: Its CC50 is over 20 µM.

Question: Which Activity [1] does the source give for `COc1ccc(-n2c(Cc3ccccc3)nnc2SCC(=O)NNC(=O)c2ccccc2O)cc1` here?
Answer: Its Activity is 0%.

Question: What about the IC50 [2] of the same molecule?
Answer: The IC50 was 18 µM.

Question: And the CC50 [3]?
Answer: Its CC50 is over 20 µM.

Question: And the Activity [4]?
Answer: Its Activity is 10%.

Question: And the IC50 [5]?
Answer: Its IC50 is 17 µM.

Question: What about the CC50 [6] of the same molecule?
Answer: The CC50 was over 20 µM.

Question: For `O=C(CSc1nnc(Cc2ccccc2)n1C1CCCCC1)NNC(=O)c1ccccc1O`, which Activity [1] is on record?
Answer: Its Activity is 11%.

Question: And the IC50 [2]?
Answer: The IC50 was 21 µM.

Question: And the CC50 [3]?
Answer: The CC50 was over 20 µM.

Question: And the Activity [4]?
Answer: The Activity was 5%.

Question: What about the IC50 [5] of the same molecule?
Answer: Its IC50 is 17 µM.

Question: And the CC50 [6]?
Answer: The CC50 was over 20 µM.

Question: With `Cc1cc(C)nc(SCc2nnc(SCC(=O)NNC(=O)c3ccccc3O)n2C)n1` as the molecule, how does the Activity [1] read?
Answer: The Activity was 21%.

Question: And the IC50 [2]?
Answer: The IC50 was over 100 µM.

Question: What about the CC50 [3] of the same molecule?
Answer: The CC50 was over 20 µM.

Question: What about the Activity [4] of the same molecule?
Answer: Its Activity is 16%.

Question: What about the IC50 [5] of the same molecule?
Answer: Its IC50 is over 100 µM.

Question: And the CC50 [6]?
Answer: Its CC50 is over 20 µM.

Question: For `O=C(CSc1nnc(-c2ccncc2)n1-c1ccccc1)N/N=C/c1ccccc1O`, which Activity [1] is on record?
Answer: The Activity was 40%.

Question: What about the IC50 [2] of the same molecule?
Answer: The IC50 was over 100 µM.

Question: And the CC50 [3]?
Answer: The CC50 was over 20 µM.

Question: What about the Activity [4] of the same molecule?
Answer: Its Activity is 44%.

Question: And the IC50 [5]?
Answer: Its IC50 is over 100 µM.

Question: And the Activity [7]?
Answer: Its Activity is “inactive”.

Question: What about the CC50 [6] of the same molecule?
Answer: Its CC50 is over 20 µM.

Question: And the Activity [8]?
Answer: The Activity was “inactive”.
